The text below walks through data of ChEMBL document CHEMBL1139929, “Penicillin-bound polyacrylate nanoparticles: restoring the activity of beta-lactam antibiotics against MRSA” (2007).

As a reminder, the MIC is the lowest concentration found to suppress growth.

For test [1], the system named is Staphylococcus aureus. Briefly: Antibacterial activity against Staphylococcus aureus ATCC 25923 after 24 hrs by broth dilution assay. The format is functional. The following applies: ATCC 25923, 24 h.
In test [2] the test system is Staphylococcus aureus. The experiment in a line: Antibacterial activity against methicillin-resistant Staphylococcus aureus ATCC 43300 after 24 hrs by broth dilution assay. The format is functional. As to conditions: ATCC 43300, 24 h. In general terms: In broth dilution the organism is exposed to a series of concentrations in liquid medium.

Converted amounts (≈) assume the structure as drawn.

Regarding `CC1(C)S[C@@H]2[C@H](NC(=O)Cc3ccccc3)C(=O)N2[C@H]1C(=O)O` [PENICILLIN G], the results for the MIC against Staphylococcus aureus [1] and with Staphylococcus aureus [2] were 0.012 µg/mL (≈ 0.0359 µM) and 16 µg/mL (≈ 47.8 µM), respectively.
